Reference: US12037344B2, “NLRP3 modulators” (INNATE TUMOR IMMUNITY, INC., priority 2018, dated 2024)
Like-named read-outs stand apart in the source and are kept apart here.

How the values were obtained:
TLR8 = target: T1, TLR8 (Homo sapiens, UniProt Q9NR97); test: In vitro human TLR8 binding reporter assay (HEK-Blue, NF-kB/AP1-inducible SEAP); type: cell-based; details: read-out: TLR8 Agonist EC50
T1 construct: human HEK-Blue cells co-expressing a TLR7 or TLR8 gene
T1 sequence (Q9NR97 27-1041): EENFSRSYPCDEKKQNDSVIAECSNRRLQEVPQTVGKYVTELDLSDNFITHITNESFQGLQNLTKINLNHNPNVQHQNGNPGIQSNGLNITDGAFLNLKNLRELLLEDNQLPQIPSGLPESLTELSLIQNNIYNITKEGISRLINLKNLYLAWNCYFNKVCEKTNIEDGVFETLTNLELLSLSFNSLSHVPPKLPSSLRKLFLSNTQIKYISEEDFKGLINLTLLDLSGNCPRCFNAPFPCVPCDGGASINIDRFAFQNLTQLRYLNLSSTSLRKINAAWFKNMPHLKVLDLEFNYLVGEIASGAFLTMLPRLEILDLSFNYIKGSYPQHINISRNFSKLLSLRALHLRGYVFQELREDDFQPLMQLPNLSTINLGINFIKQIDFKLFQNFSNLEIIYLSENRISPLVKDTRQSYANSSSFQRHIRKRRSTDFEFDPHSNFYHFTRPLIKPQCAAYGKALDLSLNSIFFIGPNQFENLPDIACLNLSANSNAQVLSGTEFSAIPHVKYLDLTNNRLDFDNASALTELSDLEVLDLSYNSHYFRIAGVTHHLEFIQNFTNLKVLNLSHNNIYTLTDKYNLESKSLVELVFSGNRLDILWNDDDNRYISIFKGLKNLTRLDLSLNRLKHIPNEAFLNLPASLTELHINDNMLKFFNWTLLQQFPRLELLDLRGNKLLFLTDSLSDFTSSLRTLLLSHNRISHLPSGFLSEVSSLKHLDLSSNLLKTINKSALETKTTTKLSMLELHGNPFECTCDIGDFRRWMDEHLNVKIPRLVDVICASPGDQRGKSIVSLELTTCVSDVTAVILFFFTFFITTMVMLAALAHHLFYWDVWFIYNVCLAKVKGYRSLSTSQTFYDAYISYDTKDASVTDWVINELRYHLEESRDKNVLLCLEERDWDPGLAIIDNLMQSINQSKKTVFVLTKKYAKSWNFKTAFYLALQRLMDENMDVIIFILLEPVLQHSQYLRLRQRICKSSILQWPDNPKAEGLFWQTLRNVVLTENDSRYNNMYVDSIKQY
Description: (§1) In Vitro Human TLR7 and TLR8 Binding Reporter Assays
(§2) Logarithmically-growing human HEK-Blue cells co-expressing a TLR7 or TLR8 gene and a NF-kB/AP1-inducible SEAP (secreted embryonic alkaline phosphatase; Invivogen, San Diego, CA) reporter gene are added to individual wells of a 384-well plate (15,000 cells per 20 μL per well) and maintained for 24 h at 37° C., 5% CO2. Test compounds or DMSO are distributed to separate wells the next day using acoustic liquid handling technology (100 nL per well) and cells are subsequently incubated for 18 h at 37° C., 5% CO2. Cellular SEAP production is measured using an Envision plate reader instrument thirty minutes after adding freshly-made Quanti-Blue reagent (prepared by following manufacturer instructions; Invivogen, San Diego, CA) to the HEK-Blue TLR Nf-kB-SEAP cell reactions. All EC50 values (half-maximal effective concentration) are determined using proprietary data analysis software. Normalized EC50 value=absolute value determined by setting 100% Ymax using a reference standard RLU (relative light unit) values from cells treated with 50 μM of the reference standard.

TLR7 = target: T2, TLR7 (Homo sapiens, UniProt Q9NYK1); test: In vitro human TLR7 binding reporter assay (HEK-Blue, NF-kB/AP1-inducible SEAP); type: cell-based; details: read-out: TLR7 Agonist EC50
T2 construct: human HEK-Blue cells co-expressing a TLR7 or TLR8 gene
T2 sequence (Q9NYK1 27-1049): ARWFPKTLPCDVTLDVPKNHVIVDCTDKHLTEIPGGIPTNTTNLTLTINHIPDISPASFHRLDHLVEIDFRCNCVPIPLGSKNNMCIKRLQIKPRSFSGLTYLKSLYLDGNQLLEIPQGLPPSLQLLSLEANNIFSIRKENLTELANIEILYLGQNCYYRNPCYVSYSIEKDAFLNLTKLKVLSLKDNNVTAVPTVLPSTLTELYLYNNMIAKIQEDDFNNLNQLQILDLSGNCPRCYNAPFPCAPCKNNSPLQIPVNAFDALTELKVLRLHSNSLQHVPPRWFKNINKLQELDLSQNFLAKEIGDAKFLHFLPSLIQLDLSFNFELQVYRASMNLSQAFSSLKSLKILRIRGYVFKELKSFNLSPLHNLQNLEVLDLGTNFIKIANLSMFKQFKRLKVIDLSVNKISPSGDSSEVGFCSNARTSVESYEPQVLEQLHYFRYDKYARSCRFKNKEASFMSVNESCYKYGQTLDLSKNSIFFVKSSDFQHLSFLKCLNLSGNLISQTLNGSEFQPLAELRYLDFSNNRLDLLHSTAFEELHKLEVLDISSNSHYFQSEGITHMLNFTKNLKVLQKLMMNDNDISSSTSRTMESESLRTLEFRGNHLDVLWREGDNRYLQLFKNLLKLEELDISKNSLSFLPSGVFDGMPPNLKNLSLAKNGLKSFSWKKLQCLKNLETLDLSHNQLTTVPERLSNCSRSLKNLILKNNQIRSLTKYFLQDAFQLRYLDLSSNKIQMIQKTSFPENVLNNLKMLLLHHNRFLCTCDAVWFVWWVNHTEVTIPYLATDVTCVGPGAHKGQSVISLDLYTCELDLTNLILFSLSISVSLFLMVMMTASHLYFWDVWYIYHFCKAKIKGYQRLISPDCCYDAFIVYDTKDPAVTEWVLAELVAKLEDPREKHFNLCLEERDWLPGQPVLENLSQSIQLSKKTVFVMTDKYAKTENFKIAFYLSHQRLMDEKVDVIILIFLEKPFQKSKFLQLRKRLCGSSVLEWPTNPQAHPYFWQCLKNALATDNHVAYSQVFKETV
Description: as §1, §2

THP-1 cells = test: Measurement of IL-1β production, hTRF protocol (second alternative procedure), THP-1 cells; type: cell-based, human
Description: Measurement of IL-1β Production—hTRF Protocol (Second Alternative Procedure)
Serial dilutions of compounds in DMSO were added to low volume 384 well plates at 100 nl/well using an ECHO 550 acoustic dispenser (Labcyte) to achieve final starting concentration of 10 μM in assay.
THP-1 cells in RPMI (Gibco, 11875) media with 10% FBS at a density of 1×10^6 cell/ml in a T175 flask were treated with a final concentration of phorbol 12-myristate 13-acetate (PMA) (Sigma, P1585) of 50 ng/ml overnight at 37° C. at 5% CO2 for differentiation. Cells were harvested the next day after rinsing well with dPBS using 0.5% trypsin. A cell solution was prepared of 1×10^6 cells/ml for 50,000 cells in 50 μl/well in RPMI media with 2% FBS. Cells were plated using a multichannel pipette onto the compound dilutions in Greiner, 384 well, black clear bottom tissue culture treated plates (781090). The plates were incubated in 37° C. incubator at 5% CO2 for 2 hours.
After the 2 hour incubation, the cell plates were spun in the centrifuge for 5 minutes at 1200 rpm. Using the Felix (CyBio), 8 μl of the supernatant was transferred to 384 well, low volume, white proxy plates. (Perkin Elmer, 6008230). A human IL1beta hTRF kit was used to analyze the supernatant (CISBIO, 62HIL1BPEG). The kit instructions were followed for preparing the IL1Beta standard curve and then the antibodies from the kit were diluted 1:40 rather than 1:20 as kit instructed. Once combined, the antibodies were added across the plates, 5 μl/well. The plates were sealed and incubated at 4° C. overnight. The plates were then read on the Perkin Elmer EnVision at 665/615 nm using the hTRF laser.

[1] = Homo sapiens, THP-1, IL-1β production, human, read-out: NLRP3 hILIB EC50
[2] = Homo sapiens, THP-1, IL-1β production, human cells, read-out: NLRP3 hILIB EC50

Structure (SMILES) | EC50 (TLR8; activity range class) [µM] | EC50 (TLR7; activity range class) [µM] | EC50 (THP-1 cells; [1]) [µM] | EC50 (TLR8; activity range) [µM] | EC50 (TLR7; activity range) [µM] | EC50 (THP-1 cells; [2]) [µM] | EC50 (THP-1 cells; Homo sapiens, THP-1, read-out: NLRP3 hILIB EC50) [µM] | EC50 (THP-1 cells; IL-1β production, human, read-out: NLRP3 hILIB EC50) [µM]
NCCn1cc2c(N)nc3cc(-c4cc[nH]n4)ccc3c2n1 [Example 149, 2-(2-aminoethyl)-7-(1H-pyrazol-3-yl)-2H-pyrazolo[4,3-c]quinolin-4-amine] | > 100 | > 100 | 0.38 | – | – | – | – | –
Nc1nc2cc(-c3cc[nH]n3)ccc2c2[nH]c(CN3C[C@H]4COC[C@H]4C3)cc12 [Example 490] | – | – | – | > 100 | > 100 | 0.84 | – | –
Nc1nc2cc(-c3cc[nH]n3)ccc2c2cn(CCCc3cccnc3)nc12 [Example 26] | > 100 | > 100 | 0.98 | – | – | – | – | –
CC(C)(Cn1cc2c(N)nc3cc(-c4cc[nH]n4)ccc3c2n1)NC(=O)c1ccc(F)cn1 [Example 293] | > 100 | > 100 | 0.6 | – | – | – | – | –
Nc1nc2cc(-c3cc[nH]n3)ccc2c2cn(CCNC(=O)Nc3ccccc3)nc12 [Example 115, 3-{2-[4-amino-7-(1H-pyrazol-3-yl)-2H-pyrazolo[3,4-c]quinolin-2-yl]ethyl}-1-phenylurea] | > 100 | > 100 | 7.76 | – | – | – | – | –
CC(C)OCC(O)Cn1cc2c(N)nc3cc(-c4cc[nH]n4)ccc3c2n1 (stereo not drawn) [Example 371] | > 100 | > 100 | 1.94 | – | – | – | – | –
CC(CC(=O)N(C)C)n1cc2c(N)nc3cc(-c4cc[nH]n4)ccc3c2n1 (stereo not drawn) [Example 617] | – | – | – | > 100 | > 100 | 3.88 | – | –
Nc1nc2cc(-c3ccn[nH]3)ccc2c2cn(CCO)cc12 [Example 455] | – | – | – | > 100 | > 100 | 0.22 | – | –
CC(=O)N(C)CCn1cc2c(N)nc3cc(-c4ccn[nH]4)ccc3c2n1 [Example 259] | > 100 | > 100 | 2.29 | – | – | – | – | –
Nc1nc2cc(-n3cccn3)ccc2c2cn(CC3CCCO3)nc12 (stereo not drawn) [Example 17] | > 100 | 20 to 100 | 2.2 | – | – | – | – | –
CCN(CCn1cc2c(n1)c(N)nc1cc(-c3cc[nH]n3)ccc12)C(C)=O [Example 29, N-[2-[4-amino-7-(1H-pyrazol-3-yl)-2H-pyrazolo[3,4-c]quinolin-2-yl]ethyl]-N-ethylacetamide] | > 100 | > 100 | – | – | – | – | 6.01 | –
CC1(O)CCCC1n1cc2c(N)nc3cc(-c4cc[nH]n4)ccc3c2n1 (single isomer, unassigned) [Example 345] | > 100 | > 100 | – | – | – | – | – | 2.03
CC(CC(=O)NCCO)n1cc2c(N)nc3cc(-c4cc[nH]n4)ccc3c2n1 (stereo not drawn) [Example 620] | – | – | – | > 100 | > 100 | 28.6 | – | –
Cc1nc(C(=O)NCCn2cc3c(n2)c(N)nc2cc(-n4cccn4)ccc23)co1 [Example 183] | 20 to 100 | > 100 | 0.11 | – | – | – | – | –
NC(=O)CCn1cc2c(n1)c(N)nc1cc(-c3ccn[nH]3)ccc12 [Example 189] | > 100 | > 100 | 0.59 | – | – | – | – | –
CC(=O)NC(C)CCn1cc2c(N)nc3cc(-n4cccn4)ccc3c2n1 (stereo not drawn) [Example 425] | – | – | – | > 100 | > 100 | 5.73 | – | –
Nc1nc2cc(-c3cc[nH]n3)ccc2c2c1cnn2CCCO [Example 216] | > 100 | > 100 | 3.04 | – | – | – | – | –
CC(O)Cn1cc2c(N)nc3cc(-c4ccn[nH]4)ccc3c2n1 (stereo not drawn) [Example 282] | > 100 | > 100 | 0.1 | – | – | – | – | –
CC(C)(Cn1cc2c(N)nc3cc(-c4ccn[nH]4)ccc3c2n1)C(=O)NCC1CCOCC1 [Example 602] | – | – | – | > 100 | > 100 | 21.2 | – | –
Nc1nc2cc(-c3cc[nH]n3)ccc2c2nn(CC3(CO)CC3)cc12 [Example 353] | > 100 | > 100 | 0.61 | – | – | – | – | –
Nc1nc2cc(-c3cc[nH]n3)ccc2c2nn(CCNC(=O)c3cc(Cl)ccn3)cc12 [Example 197] | > 100 | > 100 | 0.25 | – | – | – | – | –
